Converted amounts (≈) assume the structure as drawn. Like-named read-outs stand apart in the source and are kept apart here. Where no end group is shown, it is not given here.
Legend:
[1] = test system: Klebsiella pneumoniae ST258; experiment: microbe, parasite or virus in culture; assay type: cell-based; settings: for MIC: Klebsiella pneumoniae, ST258, 18 h; for Minimal Inhibitory Concentration, K. pneumoniae: broth microdilution (CLSI), Mueller-Hinton broth, 18 h at 37 °C, A625nm, peptides n = 8
Experimental: (§1) It was determined using the broth microdilution assay in accordance with the procedures from the Clinical and Laboratory Standards Institute. For broth microdilution assays, pathogenic bacteria, such as Escherichia coli ATCC 25922, Staphylococcus aureus ATCC 25923, Pseudomonas aeruginosa ATCC 27853 and Klebsiella pneumoniae ST258, were cultured in Mueller-Hinton broth (MHB) at 37 °C until an end point between of 0.08 and 0.13 units of absorbance at 625 nm and diluted 1:100 in MHB (ca. […]). Fifty microliters of this bacterial suspension was dispensed into each well of a 96-well microtiter Costar® culture plates (Sigma Aldrich) having 50 µL of MHB containing a proper concentration of pure AMPs, antibiotics or the mixture of either of the AMPs with either of the antibiotics used. Dilutions of peptides and antibiotics were made manually with two-fold dilutions.
(§2) That is, the antimicrobial capacity of each AMP (50, 25, 12.5 and 6.2 µg/ mL) in combination with each antibiotic agent (50, 25, 12.5, 3.2, 1.6 and 0 µg/ mL) was measured as described above. For evaluation of the effect of the mixtures, the fractional inhibitory concentration (FIC) was calculated for each antibiotic in each combination. The following formulas were used to calculate the FIC index: FIC of AMP = MIC of AMP in combination with Antibiotic/MIC of AMP alone; FIC of Antibiotic = MIC of Antibiotic in combination with AMP/MIC of Antibiotic alone, and FIC index = FIC of AMP + FIC of Antibiotic. Synergy was defined as an FIC index of <0.5. Additive was defined as an FIC index of >0.5 but of <4, and finally antagonism was defined as an FIC index of >4.

[2] = test system: Escherichia coli ATCC 25922; experiment: microbe, parasite or virus in culture; assay type: cell-based; settings: for MIC: Escherichia coli, read-out: Minimal Inhibitory Concentration, E. coli
Experimental: as §1, with “dilutions. […]” for “dilutions.”

[3] = test system: Staphylococcus aureus ATCC 25923; experiment: microbe, parasite or virus in culture; assay type: cell-based; settings: for MIC: Staphylococcus aureus, read-out: Minimal Inhibitory Concentration, S. aureus
Experimental: as §1
as §2, with “E. coli, S. aureus, P. aeruginosa and K. pneumoniae were grown in the presence of each of the four AMPs, and in the presence of each of the eight commercial antibiotics, which were Levofloxacin, Trimethoprim, Sulfamethoxazole, Azithromycin, Amoxicillin, Ceftriaxone, Gentamicin and Vancomycin, and in combinations of AMPs and the antibiotics. That” for “That”

[4] = test system: Pseudomonas aeruginosa ATCC 27853; experiment: microbe, parasite or virus in culture; assay type: cell-based; settings: for MIC: Pseudomonas aeruginosa, read-out: Minimal Inhibitory Concentration, P. aureginosa
Experimental: as §1
as §2, with “E. coli, S. aureus, P. aeruginosa and K. pneumoniae were grown in the presence of each of the four AMPs, and in the presence of each of the eight commercial antibiotics, which were Levofloxacin, Trimethoprim, Sulfamethoxazole, Azithromycin, Amoxicillin, Ceftriaxone, Gentamicin and Vancomycin, and in combinations of AMPs and the antibiotics. That” for “That”

[5] = cited from earlier work
Excerpt: Concerning AMPs, several physicochemical characteristics have been associated with the biological activity of them. Those that are relevant include hydrophobicity, the helical hydrophobic moment, as well as the size and the net charge of the peptide. However, no particular value relating to any of these characteristics was solely sufficient to correlate with the antimicrobial activity of the AMPs tested. In this case, however, the larger peptides FA1 and Pin2[G] were the AMPs that manifested optimum biological performance. Nevertheless, a fine balance in terms of physicochemical pr ...

[6] = Stability in supernatant of S. aureus growth; assay type: in vitro ADME, Staphylococcus aureus; settings: 50 μg/mL, 12 h at 37 °C, extraction, reverse phase HPLC at 230 nm
Experimental: (§3) The four synthetic peptides were subjected to incubation in human blood plasma or in the supernatant of S. aureus and P. aeruginosa growth. The AMPs were diluted in human blood plasma or in the supernatant of bacterial growth (50 μg/mL) and incubated at 37 °C for 12 h. After peptide extraction, the AMPs were separated by reverse phase HPLC using a C18 column (Vydac 218 TP54, Grace Co.) and a linear gradient of acetonitrile in 0.1% aqueous TFA from 0 to 60% in 60 min at a flow rate of 1 mL/min. Effluent absorbance was monitored at 230 nm. Peptide fractions were dried under vacuum, resuspended and analyzed by ESI-MS to confirm their molecular masses.

[7] = Stability in human blood plasma; assay type: in vitro ADME; settings: 50 μg/mL; for Peptide found after incubation in human blood plasma: 12 h at 37 °C, extraction, reverse phase HPLC at 230 nm, ESI-MS; for Recovery after interaction with human plasma, first few minutes of dilution: extracted after the first few minutes of dilution, reverse phase HPLC
Experimental: as §3

[8] = Stability in supernatant of P. aeruginosa growth; assay type: in vitro ADME, Pseudomonas aeruginosa; settings: 50 μg/mL, 12 h at 37 °C, extraction, reverse phase HPLC at 230 nm
Experimental: as §3

[9] = read-out: Minimal Inhibitory Concentration, K. pneumoniae
[10] = dose-response in Muller-Hinton broth, Figure 3D
[11] = ATCC25922, broth microdilution (CLSI), Mueller-Hinton broth, 18 h at 37 °C, A625nm, peptides n = 8
[12] = ATCC25923, broth microdilution (CLSI), Mueller-Hinton broth, 18 h at 37 °C, A625nm, peptides n = 8
[13] = ATCC27853, broth microdilution (CLSI), Mueller-Hinton broth, 18 h at 37 °C, A625nm, peptides n = 8
[14] = broth microdilution (CLSI), Mueller-Hinton broth, 18 h at 37 °C, A625nm, peptides n = 8

CC1(C)S[C@@H]2[C@H](NC(=O)[C@H](N)c3ccc(O)cc3)C(=O)N2[C@H]1C(=O)O [Amoxicillin]
MIC ([1]; read-out: Antibiotic (MIC)): > 50 µg/mL
MIC [1, 9]: > 50 µg/mL
Antibiotic concentration in whose presence K. pneumoniae could grow (up to) [1, 10]: up to 50 µg/mL
MIC ([2]; ATCC25922, 18 h): 12.5 µg/mL (≈ 34.2 µM)
MIC ([3]; ATCC25923, 18 h): 1.5 µg/mL
Susceptibility of P. aeruginosa in words [4]: resistant
MIC ([4]; ATCC27853, 18 h): > 50 µg/mL

CC[C@H]1OC(=O)[C@H](C)[C@@H](O[C@H]2C[C@@](C)(OC)[C@@H](O)[C@H](C)O2)[C@H](C)[C@@H](O[C@@H]2O[C@H](C)C[C@H](N(C)C)[C@H]2O)[C@](C)(O)C[C@@H](C)CN(C)[C@H](C)[C@@H](O)[C@]1(C)O [Azithromycin]
MIC ([1]; read-out: Antibiotic (MIC)): > 50 µg/mL
MIC [1, 9]: > 50 µg/mL
Antibiotic concentration in whose presence K. pneumoniae could grow (up to) [1, 10]: up to 50 µg/mL
MIC [2, 11]: 1.5 µg/mL (≈ 2 µM)
MIC [3, 12]: 3.1 µg/mL
MIC [4, 13]: 12.5 µg/mL

CO/N=C(\C(=O)N[C@@H]1C(=O)N2C(C(=O)O)=C(CSc3nc(=O)c(=O)[nH]n3C)CS[C@H]12)c1csc(N)n1 [Ceftriaxone]
MIC ([1]; read-out: Antibiotic (MIC)): > 50 µg/mL
MIC [1, 9]: > 50 µg/mL
Antibiotic concentration in whose presence K. pneumoniae could grow (up to) [1, 10]: up to 50 µg/mL
MIC [2, 11]: 1.5 µg/mL (≈ 2.7 µM)
MIC [3, 12]: 1.5 µg/mL
MIC [4, 13]: 12.5 µg/mL

CNC(C)C1CCC(N)C(OC2C(N)CC(N)C(OC3OCC(C)(O)C(NC)C3O)C2O)O1 (stereo not shown) [Gentamicin]
MIC [1, 9]: 12.5 µg/mL
MIC ([1]; antibiotic alone against K. pneumoniae, based on Figure 3, read-out: Antibiotic (MIC)): 12.5 µg/mL
Susceptibility of K. pneumoniae in words [1, 10]: susceptible
MIC [2, 11]: 1.5 µg/mL (≈ 3.14 µM)
MIC [3, 12]: 1.5 µg/mL
MIC [4, 13]: 1.5 µg/mL

C[C@H]1COc2c(N3CCN(C)CC3)c(F)cc3c(=O)c(C(=O)O)cn1c23 [Levofloxacin]
MIC ([1]; read-out: Antibiotic (MIC)): 50 µg/mL
MIC [1, 9]: 50 µg/mL
Antibiotic concentration in whose presence K. pneumoniae could grow (up to) [1, 10]: up to 25 µg/mL
MIC [2, 11]: 1.5 µg/mL (≈ 4.15 µM)
MIC [3, 12]: 1.5 µg/mL
MIC [4, 13]: 1.5 µg/mL

Cc1cc(NS(=O)(=O)c2ccc(N)cc2)no1 [Sulfamethoxazole]
MIC ([1]; read-out: Antibiotic (MIC)): > 50 µg/mL
MIC [1, 9]: > 50 µg/mL
Susceptibility of E. coli in words [2]: to some extent
MIC ([2]; ATCC25922, 18 h): > 50 µg/mL
Susceptibility of S. aureus in words [3]: resistance
MIC ([3]; ATCC25923, 18 h): > 50 µg/mL
Susceptibility of P. aeruginosa in words [4]: resistant
MIC ([4]; ATCC27853, 18 h): > 50 µg/mL

COc1cc(Cc2cnc(N)nc2N)cc(OC)c1OC [Trimethoprim]
MIC ([1]; read-out: Antibiotic (MIC)): > 50 µg/mL
MIC [1, 9]: > 50 µg/mL
Antibiotic concentration in whose presence K. pneumoniae could grow (up to) [1, 10]: up to 50 µg/mL
MIC ([2]; ATCC25922, 18 h): 1.5 µg/mL (≈ 5.17 µM)
MIC ([3]; ATCC25923, 18 h): 1.5 µg/mL
Susceptibility of P. aeruginosa in words [4]: resistant
MIC ([4]; ATCC27853, 18 h): > 50 µg/mL

CN[C@H](CC(C)C)C(=O)N[C@H]1C(=O)N[C@@H](CC(N)=O)C(=O)N[C@H]2C(=O)N[C@H]3C(=O)N[C@H](C(=O)N[C@H](C(=O)O)c4cc(O)cc(O)c4-c4cc3ccc4O)[C@H](O)c3ccc(c(Cl)c3)Oc3cc2cc(c3O[C@@H]2O[C@H](CO)[C@@H](O)[C@H](O)[C@H]2O[C@H]2C[C@](C)(N)[C@H](O)[C@H](C)O2)Oc2ccc(cc2Cl)[C@H]1O [Vancomycin]
MIC ([1]; read-out: Antibiotic (MIC)): > 50 µg/mL
MIC [1, 9]: > 50 µg/mL
Antibiotic concentration in whose presence K. pneumoniae could grow (up to) [1, 10]: up to 50 µg/mL
MIC [2, 11]: > 50 µg/mL
Susceptibility of E. coli in words ([2]; dose-response in Muller-Hinton broth, Figure 3C): resistance
MIC [3, 12]: 1.5 µg/mL
MIC [4, 13]: > 50 µg/mL
Susceptibility of P. aeruginosa in words ([4]; dose-response in Muller-Hinton broth, Figure 3B): resistant

FWGALAKGALKLIGSLFSSFSKKD [Pin2[G]]
hemolytic activity [5]: 1.4 µM
Peptide (MIC) ([1]; peptide alone against K. pneumoniae, based on Figure 2): >50 µg/mL
Stability in supernatants of S. aureus [6]: not cleaved
Minimal Inhibitory Concentration, E. coli [2, 14]: 50 µg/mL
Minimal Inhibitory Concentration, S. aureus [3, 14]: 25 µg/mL
Minimal Inhibitory Concentration, P. aureginosa [4, 14]: >50 µg/mL
Peptide found after incubation in human blood plasma [7]: One quarter
Stability in supernatants of P. aeruginosa [8]: not cleaved

FWGLKGLKKFSKKL [Pin2[14]]
hemolytic activity [5]: 418 µM
Minimal Inhibitory Concentration, K. pneumoniae [1]: >50 µg/mL
Stability in supernatants of S. aureus [6]: not cleaved
Minimal Inhibitory Concentration, E. coli [2, 14]: >50 µg/mL
Minimal Inhibitory Concentration, S. aureus [3, 14]: >50 µg/mL
Minimal Inhibitory Concentration, P. aureginosa [4, 14]: >50 µg/mL
Peptide found after incubation in human blood plasma [7]: not found
Recovery after interaction with human plasma, first few minutes of dilution [7]: none

GILKTIKSIASKLKRKAK [P18K]
hemolytic activity [5]: 923 µM
Minimal Inhibitory Concentration, K. pneumoniae [1]: >50 µg/mL
Stability in supernatants of S. aureus [6]: probably sequestered or cleaved
Minimal Inhibitory Concentration, E. coli [2, 14]: >50 µg/mL
Minimal Inhibitory Concentration, S. aureus [3, 14]: >50 µg/mL
Minimal Inhibitory Concentration, P. aureginosa [4, 14]: >50 µg/mL
Peptide found after incubation in human blood plasma [7]: neither was P18K obtained
Recovery after interaction with human plasma, first few minutes of dilution [7]: none
Stability in supernatants of P. aeruginosa [8]: probably sequestered or cleaved

Reference: publication PMC6273820, “Antimicrobial Activity and Stability of Short and Long Based Arachnid Synthetic Peptides in the Presence of Commercial Antibiotics” (Molecules, 2016)
